Patent EP1130064A1, “DYE COMPOSITION, INK COMPOSITION, AND INK-JET RECORDING METHOD” (Nippon Kayaku Kabushiki Kaisha, priority 1998, dated 2000)

What was measured:
[1] = Light fastness of recorded image (carbon arc fade meter); type: physicochemical; conditions: carbon arc 40 hours; for Light fastness Judgment: blue scale grade JIS L-0841; for Light fastness (ΔE): color difference before/after
Description: (§1) By using an ink-jet printer (Trade name: PICTY80L, made by NEC KK), ink-jet printing was done on five types of recording materials: a plain paper(Printer Paper A4, TLB5A4S, made by Canon KK), a special paper A(Color BJ Paper LC101, made by Canon KK), a special paper B(Color Image Jet Coat Paper STX73A4, made by Sharp KK), a glossy film A(Special Glossy Film MJA4SP6, made by Seiko-Epson KK), and a glossy film B(Color BJ Photo Sheet Film CA-101, made by Canon KK). The test results on hue, vividness, light fastness, and water fastness in recorded images pictured by the water-based yellow ink composition ( X=H, M=Na in Formula (1)) of the present invention are shown in Table 2.
(§2) An ink composition for the comparative example was prepared same as in the above (A), but the ink composition contained C.I. Acid Yellow 17, an azo dye generally applied for an ink-jet yellow dye in place of the dye composition in Table 1 and was adjusted to coincide in optical density with the yellow ink of the present invention. The test results on hue, vividness, light fastness, and water fastness in recorded images pictured by the ink composition for the comparative example also are shown in Table 2. Hue and vividness in the color sample of JNC's JAPAN COLOR are shown in Table 2 (The paper of the color sample Japan Color Standard Paper a paper). (C) Assessment of recorded image
A carbon arc fade meter ( by Suga Testing Machine Co.) was used to irradiate carbon arc on the recorded image for 40 hours. Grade was determined based on blue scale grade as prescribed in JIS L-0841. Color difference (ΔE) between before and after the irradiation also was determined by using the above colorimetry.

[2] = Water fastness of recorded image (stirred in water); type: physicochemical; conditions: stirred in water 2 min, dried; for Water fastness Judgment: JIS fading gray scale; for Water fastness (ΔE): color difference before/after
Description: as §1, §2
A recorded material was set in a beaker filled with water, stirred for 2 min and dried. The color fading of the recorded image after treatment was determined based on the JIS fading gray scale. Color difference (ΔE) between before and after the treatment also was determined by using the above colorimetry.

Light fastness Judgment ([1]; Glossy film A): Grade3-4 | Light fastness (ΔE) ([1]; Glossy film A): 17.6 | Light fastness Judgment ([1]; Glossy film B): Grade 2 | Light fastness (ΔE) ([1]; Glossy film B): 64.6 | Light fastness Judgment ([1]; Plain paper): Grade4-5 | Light fastness (ΔE) ([1]; Plain paper): 4.5 | Light fastness Judgment ([1]; Special paper A): Grade 3 | Light fastness (ΔE) ([1]; Special paper A): 33.5 | Light fastness Judgment ([1]; Special paper B): Grade 3 | Light fastness (ΔE) ([1]; Special paper B): 29.4 | Water fastness Judgment ([2]; Glossy film A): Grade4-5 | Water fastness (ΔE) ([2]; Glossy film A): 6.2 | Water fastness Judgment ([2]; Glossy film B): Grade4-5 | Water fastness (ΔE) ([2]; Glossy film B): 4.7 | Water fastness Judgment ([2]; Plain paper): Grade 1 | Water fastness (ΔE) ([2]; Plain paper): 76.8 | Water fastness Judgment ([2]; Special paper A): Grade 3 | Water fastness (ΔE) ([2]; Special paper A): 15.7 | Water fastness Judgment ([2]; Special paper B): Grade 2 | Water fastness (ΔE) ([2]; Special paper B): 39.6
Substance: C.I. Acid Yellow 17 [Comparative example 1]
